Results taken from patent US20250360233A1, “Central Neurodegeneration Imaging Agent and Method of Preparing the Same” (National Atomic Research Institute, priority 2024, published 2025).
Like-named read-outs stand apart in the source and are kept apart here.

Key:
[1] = test system: mouse brains (PD brain lesions); test: PET brain imaging of Rotenone-induced Parkinson's disease mice versus Sham; assay type: in vivo; conditions: for F-18 images of PD brains compared with the control group (Sham): Rotenone tube feeding 12 weeks
Description: Regarding its application, the present invention entails feeding Rotenone to mice by tube feeding continuously for 12 weeks to induce the mouse brains to manifest Parkinson's disease (PD) symptom animal mode for function as the experimental group, treating mice with placebo to serve as the control group (Sham) without manifesting any PD lesions, performing imaging of the mouse brains with an F-18-FE-PE21, F-18-FDOPA and F-18-α-syn3 respectively, displaying the longitudinal-section and cross-section images of the mouse brains, and comparing the intake of the F-18 imaging agent into the mouse brains.

[2] = parallel artificial membrane permeation assay (PAMPA) simulating the blood-brain barrier; assay type: in vitro ADME
Description: (§1) Therefore, the present invention not only effectively reduces the logP value but also passes a test of affinity, specificity, and parallel artificial membrane.

amyloid-β(Aβ) = amyloid-β(Aβ) (Homo sapiens, UniProt P05067); test: affinity comparison, amyloid-β; assay type: binding; conditions: read-out: amyloid-β(Aβ) value compared with the α-synuclein IC50
amyloid-β(Aβ), sequence (P05067 672-713 limits assumed): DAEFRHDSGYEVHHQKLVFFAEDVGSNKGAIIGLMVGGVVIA
Description: as §1

α-synuclein = α-synuclein (Homo sapiens, UniProt P37840); test: test tube competition test, α-synuclein; conditions: read-out: IC50 (50% binding inhibition)
Description: as §1

[3] = F-18-α-syn3 serum stability; assay type: in vitro ADME; conditions: serum at 37° C., after a hour
Experimental: Moreover, the present invention discloses giving considerations to the F-18-α-syn3 formula and serum stability and thus conducting F-18-α-syn3 formula research to attain a recycling rate as high as 90.1%. Regarding a test of F-18-α-syn3 serum stability, medications are placed within serum at 37° C., achieving radioactive chemical purity of 91.5% even after a hour.

[4] = logP analysis of the F-18-α-syn3; assay type: physicochemical
Description: The experimental results of the logP analysis of the F-18-α-syn3 of the present invention are as follows:
The above data is about testing the logP of the F-18-α-syn3 labeling finished product solution repeatedly. The result confirms that all the logP values range from 2 to 3.

[5] = Rotenone PD mice versus Sham, PET

SMILES	brain intake, experimental group versus control group [1, 5]	F-18 images of PD brains compared with the control group (Sham) ([1]; mice, PET)	concentration that ensures the satisfaction of PAMPA [2]	PAMPA pass rate ([2]; concentration of 60 nM) [%]	IC50 (amyloid-β(Aβ)) [nM]	IC50 (α-synuclein) [nM]	background absorption level [1, 5]	passage through the blood-brain barrier (BBB) into mouse brains ([1]; mice)	radioactive chemical purity in serum [3] [%]	logP ([4]; 50 uCi, read-out: logP)	logP ([4]; end solution, 22 uCi, read-out: logP)	logP ([4]; end solution, 50 uCi, read-out: logP)	logP ([4]; labeling finished product solution tested repeatedly, read-out: logP, range of all repeated tests)	selectivity in terms of brain distribution [1, 5]
Cc1ccc([C@H]2C[C@@H]3CC[C@H]([C@H]2C(=O)OCC[18F])N3C/C=C/I)cc1 [F-18-FE-PE21]	lower	no difference and no specificity	–	–	–	–	–	–	–	–	–	–	–	–
O=C1/C(=C\C=C\c2ccc([N+](=O)[O-])cc2)c2ccccc2N1CCOCCF [F-18-α-syn3, (Z)-1-(2-(2-fluoroethoxy)ethyl)-3-((E)-3-(4-nitrophenyl)allylidene) indolin-2-one]	–	clearer F-18 images	at least 6 nM	56.25	142	172	obviously lower	can pass through the blood-brain barrier	91.5	2.63	2.41	2.07	2 to 3	–
N[C@@H](Cc1cc(O)c(O)cc1[18F])C(=O)O [F-18-FDOPA]	–	no difference and no specificity	–	–	–	–	–	–	–	–	–	–	–	no selectivity
